Measured values published in patent US20240269139A1, “COMPOUNDS FOR TARGETED PROTEIN DEGRADATION OF KINASES” (DANA-FARBER CANCER INSTITUTE, INC., priority 2020, published 2024).
Read-outs that look alike come from different tables or passages of the source.

How the values were obtained:
[1] = target: protein kinases (human kinome) (Homo sapiens, UniProt Q9H0K1); type: cell-based; conditions: for logFC of SIK2: Accession Q9H0K1; for logFC SIK2 (Q9H0K1): direction of change down
[2] = target: protein kinases (human kinome) (Homo sapiens, UniProt P11802); type: cell-based
Sequence of protein kinases (human kinome) (Homo sapiens, UniProt P11802) (P11802 whole entry): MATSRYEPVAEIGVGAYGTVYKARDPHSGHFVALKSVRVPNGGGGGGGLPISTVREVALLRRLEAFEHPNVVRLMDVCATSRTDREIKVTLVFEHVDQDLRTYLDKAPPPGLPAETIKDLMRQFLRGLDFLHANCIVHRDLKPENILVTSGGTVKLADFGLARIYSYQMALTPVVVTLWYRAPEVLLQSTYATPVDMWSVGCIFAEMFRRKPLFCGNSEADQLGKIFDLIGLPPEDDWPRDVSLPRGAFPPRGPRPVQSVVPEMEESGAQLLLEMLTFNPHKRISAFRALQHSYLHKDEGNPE

[3] = target: extended human kinome (kinase-like proteins) (Homo sapiens, UniProt Q16875); test: Whole cell quantitative proteomics: extended kinome hits; conditions: Accession Q16875
Sequence of extended human kinome (kinase-like proteins) (Homo sapiens, UniProt Q16875) (Q16875 whole entry): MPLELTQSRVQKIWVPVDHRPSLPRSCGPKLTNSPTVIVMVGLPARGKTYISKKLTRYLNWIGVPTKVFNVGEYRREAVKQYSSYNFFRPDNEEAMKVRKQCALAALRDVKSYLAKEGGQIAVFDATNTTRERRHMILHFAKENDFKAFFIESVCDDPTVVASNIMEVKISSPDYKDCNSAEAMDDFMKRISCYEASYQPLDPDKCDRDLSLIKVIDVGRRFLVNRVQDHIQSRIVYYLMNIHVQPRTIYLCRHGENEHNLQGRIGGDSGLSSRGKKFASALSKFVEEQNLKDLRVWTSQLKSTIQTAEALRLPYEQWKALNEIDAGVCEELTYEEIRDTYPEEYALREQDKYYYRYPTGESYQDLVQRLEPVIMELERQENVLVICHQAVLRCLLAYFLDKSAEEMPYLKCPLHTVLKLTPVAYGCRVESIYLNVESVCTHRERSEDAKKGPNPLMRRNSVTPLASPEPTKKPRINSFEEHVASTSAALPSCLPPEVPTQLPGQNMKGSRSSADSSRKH

[4] = target: protein kinases (human kinome) (Homo sapiens, UniProt Q00534); type: cell-based; conditions: for logFC CDK6: CDK6 (Q00534), direction down; for logFC of CDK6 (Q00534): down
Sequence of protein kinases (human kinome) (Homo sapiens, UniProt Q00534) (Q00534 whole entry): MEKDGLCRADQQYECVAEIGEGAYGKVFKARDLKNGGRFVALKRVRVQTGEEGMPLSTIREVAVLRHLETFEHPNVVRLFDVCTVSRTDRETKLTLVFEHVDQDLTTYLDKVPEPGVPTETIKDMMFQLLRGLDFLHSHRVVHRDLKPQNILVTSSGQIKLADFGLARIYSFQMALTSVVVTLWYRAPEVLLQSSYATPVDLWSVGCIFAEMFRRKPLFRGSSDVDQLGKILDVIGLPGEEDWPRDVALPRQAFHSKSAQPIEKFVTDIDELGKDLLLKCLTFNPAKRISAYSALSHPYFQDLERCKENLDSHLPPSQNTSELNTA

[5] = target: protein kinases (human kinome) (Homo sapiens, UniProt Q2M2I8); type: cell-based
Sequence of protein kinases (human kinome) (Homo sapiens, UniProt Q2M2I8) (Q2M2I8 whole entry): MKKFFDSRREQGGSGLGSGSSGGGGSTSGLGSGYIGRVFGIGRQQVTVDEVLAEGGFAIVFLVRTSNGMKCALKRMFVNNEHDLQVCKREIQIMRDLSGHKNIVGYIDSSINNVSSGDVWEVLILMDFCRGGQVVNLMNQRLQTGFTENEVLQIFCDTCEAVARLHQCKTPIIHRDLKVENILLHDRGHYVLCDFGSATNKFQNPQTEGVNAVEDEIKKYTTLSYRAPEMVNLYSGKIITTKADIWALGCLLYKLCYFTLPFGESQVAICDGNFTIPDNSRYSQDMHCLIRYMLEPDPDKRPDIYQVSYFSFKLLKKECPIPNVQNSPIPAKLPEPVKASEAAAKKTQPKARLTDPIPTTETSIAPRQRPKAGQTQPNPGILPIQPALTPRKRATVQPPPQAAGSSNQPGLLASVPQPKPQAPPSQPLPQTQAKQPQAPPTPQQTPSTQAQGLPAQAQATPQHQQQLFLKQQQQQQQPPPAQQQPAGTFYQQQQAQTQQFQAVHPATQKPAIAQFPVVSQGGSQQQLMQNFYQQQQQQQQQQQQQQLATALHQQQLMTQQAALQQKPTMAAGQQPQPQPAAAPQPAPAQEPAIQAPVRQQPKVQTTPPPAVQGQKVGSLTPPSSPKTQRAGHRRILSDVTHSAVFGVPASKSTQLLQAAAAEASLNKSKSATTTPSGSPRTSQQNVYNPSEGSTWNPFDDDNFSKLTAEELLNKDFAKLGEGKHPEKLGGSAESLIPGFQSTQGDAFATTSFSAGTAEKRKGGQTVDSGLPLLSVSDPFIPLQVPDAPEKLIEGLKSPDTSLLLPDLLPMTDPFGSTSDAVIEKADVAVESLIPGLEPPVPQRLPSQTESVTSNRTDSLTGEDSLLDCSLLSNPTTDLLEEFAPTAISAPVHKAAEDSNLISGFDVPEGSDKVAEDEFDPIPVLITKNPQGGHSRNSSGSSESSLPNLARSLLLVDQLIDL

[6] = target: protein kinases (human kinome) (Homo sapiens, UniProt P30291); type: cell-based; conditions: for logFC of WEE1: WEE1 P30291-1
Sequence of protein kinases (human kinome) (Homo sapiens, UniProt P30291) (P30291 whole entry): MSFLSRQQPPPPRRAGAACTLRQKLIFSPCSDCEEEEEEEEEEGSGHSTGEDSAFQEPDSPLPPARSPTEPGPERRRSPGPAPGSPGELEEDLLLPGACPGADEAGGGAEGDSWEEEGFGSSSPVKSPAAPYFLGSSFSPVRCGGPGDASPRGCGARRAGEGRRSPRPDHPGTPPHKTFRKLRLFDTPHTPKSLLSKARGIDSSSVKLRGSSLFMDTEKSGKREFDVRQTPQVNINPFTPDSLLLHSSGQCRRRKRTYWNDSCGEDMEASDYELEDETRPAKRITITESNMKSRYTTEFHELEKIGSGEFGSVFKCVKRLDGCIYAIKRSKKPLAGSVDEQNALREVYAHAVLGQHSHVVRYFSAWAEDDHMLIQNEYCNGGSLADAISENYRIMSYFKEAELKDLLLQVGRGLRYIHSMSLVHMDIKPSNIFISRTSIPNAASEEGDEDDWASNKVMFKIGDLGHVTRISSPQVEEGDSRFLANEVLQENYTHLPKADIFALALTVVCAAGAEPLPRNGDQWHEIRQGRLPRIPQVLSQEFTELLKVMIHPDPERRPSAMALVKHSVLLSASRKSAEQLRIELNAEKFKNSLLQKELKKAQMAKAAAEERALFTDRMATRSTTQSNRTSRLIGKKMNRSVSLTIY

[7] = target: T1, protein kinases (human kinome) (Homo sapiens, UniProt O14965); type: cell-based
T1 sequence (O14965 1-403): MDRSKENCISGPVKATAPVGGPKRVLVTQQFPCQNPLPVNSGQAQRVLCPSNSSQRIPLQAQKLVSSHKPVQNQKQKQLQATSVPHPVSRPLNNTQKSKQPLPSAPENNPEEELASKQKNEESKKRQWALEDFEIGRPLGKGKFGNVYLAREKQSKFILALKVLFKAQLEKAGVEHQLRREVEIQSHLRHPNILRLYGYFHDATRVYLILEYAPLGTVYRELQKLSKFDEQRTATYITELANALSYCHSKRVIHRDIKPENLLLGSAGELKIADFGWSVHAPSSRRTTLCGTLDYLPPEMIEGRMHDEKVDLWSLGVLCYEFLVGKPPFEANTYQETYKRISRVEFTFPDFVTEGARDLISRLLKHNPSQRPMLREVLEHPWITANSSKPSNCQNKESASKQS

[8] = target: T2, extended human kinome (kinase-like proteins) (Homo sapiens, UniProt Q7L8L6); test: Whole cell quantitative proteomics: extended kinome hits; conditions: Accession Q7L8L6; experiment wp118
T2 sequence (Q7L8L6 28-764): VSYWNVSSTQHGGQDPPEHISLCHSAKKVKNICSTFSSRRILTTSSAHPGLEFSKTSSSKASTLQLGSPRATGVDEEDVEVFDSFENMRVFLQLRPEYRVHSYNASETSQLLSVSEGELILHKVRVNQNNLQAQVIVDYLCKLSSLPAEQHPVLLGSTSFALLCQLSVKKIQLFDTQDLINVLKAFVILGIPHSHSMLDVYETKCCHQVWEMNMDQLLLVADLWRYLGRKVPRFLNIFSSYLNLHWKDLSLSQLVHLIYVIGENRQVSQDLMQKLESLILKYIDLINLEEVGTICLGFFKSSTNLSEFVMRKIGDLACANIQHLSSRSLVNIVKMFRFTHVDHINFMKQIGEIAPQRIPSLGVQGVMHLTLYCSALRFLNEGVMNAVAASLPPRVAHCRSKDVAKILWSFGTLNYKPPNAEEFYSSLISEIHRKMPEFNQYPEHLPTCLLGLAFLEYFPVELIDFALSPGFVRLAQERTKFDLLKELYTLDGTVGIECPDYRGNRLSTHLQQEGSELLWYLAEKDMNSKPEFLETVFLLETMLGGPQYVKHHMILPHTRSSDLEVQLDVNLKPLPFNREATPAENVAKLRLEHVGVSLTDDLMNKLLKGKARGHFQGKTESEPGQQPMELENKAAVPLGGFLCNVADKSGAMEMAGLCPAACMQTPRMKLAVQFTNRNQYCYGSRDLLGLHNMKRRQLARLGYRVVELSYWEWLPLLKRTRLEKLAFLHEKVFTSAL

Sequence of protein kinases (human kinome) (Homo sapiens, UniProt Q9H0K1) (Q9H0K1 whole entry): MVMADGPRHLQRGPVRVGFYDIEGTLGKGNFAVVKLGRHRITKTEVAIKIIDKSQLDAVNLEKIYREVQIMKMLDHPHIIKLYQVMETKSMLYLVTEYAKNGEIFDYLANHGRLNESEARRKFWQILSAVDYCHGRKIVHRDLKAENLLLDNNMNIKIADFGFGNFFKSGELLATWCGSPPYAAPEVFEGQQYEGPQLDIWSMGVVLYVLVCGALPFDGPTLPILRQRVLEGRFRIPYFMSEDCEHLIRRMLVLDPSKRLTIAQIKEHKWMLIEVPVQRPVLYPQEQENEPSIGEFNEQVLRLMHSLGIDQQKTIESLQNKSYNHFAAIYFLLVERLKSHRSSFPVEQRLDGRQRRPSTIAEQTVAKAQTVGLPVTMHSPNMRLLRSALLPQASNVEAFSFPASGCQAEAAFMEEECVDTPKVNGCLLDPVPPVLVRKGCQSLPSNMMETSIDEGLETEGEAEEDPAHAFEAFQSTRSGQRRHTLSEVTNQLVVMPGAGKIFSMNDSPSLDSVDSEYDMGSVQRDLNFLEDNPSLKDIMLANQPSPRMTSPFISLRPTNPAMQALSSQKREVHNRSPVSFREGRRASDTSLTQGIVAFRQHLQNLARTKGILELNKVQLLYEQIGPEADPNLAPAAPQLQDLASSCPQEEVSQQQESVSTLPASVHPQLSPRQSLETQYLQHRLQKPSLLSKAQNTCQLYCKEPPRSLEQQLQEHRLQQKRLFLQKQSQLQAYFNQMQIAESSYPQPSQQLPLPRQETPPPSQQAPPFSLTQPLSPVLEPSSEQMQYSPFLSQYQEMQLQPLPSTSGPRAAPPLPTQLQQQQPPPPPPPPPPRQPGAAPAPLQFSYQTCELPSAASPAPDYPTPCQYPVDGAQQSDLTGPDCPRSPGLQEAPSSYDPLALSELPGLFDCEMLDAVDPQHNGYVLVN

Cc1ccc(NC(=O)c2cccc(C(F)(F)F)c2)cc1N1Cc2cnc(Nc3ccc(N4CCN(CCCCCCOc5cccc6c5C(=O)N(C5CCC(=O)NC5=O)C6=O)CC4)nc3)nc2N(C)C1=O (centres unmarked) [DB0663]
logFC of SIK2 ([1]; experiment wp045): −0.4765 | logFC SIK2 ([1]; SIK2 (Q9H0K1), experiment wp045, down): −0.4765 | logFC CDK4 (P11802) ([2]; experiment wp045): −0.6823 | logFC PFKFB3 ([3]; experiment wp045): −0.4221

Cc1ncsc1-c1ccc([C@H](C)NC(=O)[C@@H]2C[C@@H](O)CN2C(=O)[C@@H](NC(=O)CCOCCOCCN2CCN(c3ccc(Nc4ncc(Cl)c(Nc5ccccc5S(=O)(=O)C(C)C)n4)cc3)CC2)C(C)(C)C)cc1 [FMF.06.098.1]
logFC of SIK2 ([1]; experiment wp114): −0.4985 | logFC of SIK2 ([1]; experiment wp131): −0.602 | logFC SIK2 (Q9H0K1) ([1]; Experiment wp114): −0.4985 | logFC SIK2 (Q9H0K1) ([1]; experiment wp131): −0.602 | logFC CDK4 (P11802) ([2]; Experiment wp108): −0.8731 | logFC CDK4 (P11802) ([2]; experiment wp114): −0.3781 | logFC CDK4 (P11802) ([2]; experiment wp131): −1.029 | logFC CDK6 ([4]; experiment wp108): −0.3588 | logFC CDK6 ([4]; experiment wp131): −0.5377 | logFC of CDK6 (Q00534) ([4]; Experiment wp108): −0.3588 | logFC of CDK6 (Q00534) ([4]; Experiment wp131): −0.5377 | logFC AAK1 ([5]; AAK1 (Q2M218-1), experiment wp108, down): −0.4346 | logFC AAK1 ([5]; AAK1 (Q2M218-1), experiment wp114, down): −0.485 | logFC AAK1 ([5]; AAK1 (Q2M218-1), experiment wp131, down): −0.7293 | logFC AAK1 ([5]; AAK1, accession Q2M218-1, experiment wp108, direction of change down): −0.4346 | logFC AAK1 ([5]; AAK1, accession Q2M218-1, experiment wp114, direction of change down): −0.485 | logFC AAK1 ([5]; AAK1, accession Q2M218-1, experiment wp131, direction of change down): −0.7293 | logFC WEE1 (P30291-1) ([6]; Experiment wp108): −1.98 | logFC of WEE1 ([6]; experiment wp108): −1.98 | logFC of WEE1 ([6]; experiment wp131): −2.183 | logFC WEE1 (P30291-1) ([6]; experiment wp131): −2.183 | logFC AURKA (O14965) ([7]; experiment wp114): −0.4151 | logFC AURKA (O14965) ([7]; experiment wp131): −0.3471

C=CCn1c(=O)c2cnc(Nc3ccc(N4CCN(CCCNc5cccc6c5C(=O)N(C5CCC(=O)NC5=O)C6=O)CC4)cc3)nc2n1-c1cccc(C(C)(C)O)n1 (centres unmarked) [ZNL.02.096]
logFC of WEE1 ([6]; experiment wp081): −1.97 | logFC of WEE1 ([6]; experiment wp106, 2 hr): −2.525 | logFC of WEE1 ([6]; experiment wp106, 4 hr): −2.764 | logFC of WEE1 ([6]; experiment wp118): −2.75 | logFC WEE1 (P30291-1) ([6]; experiment wp056): −2.409 | logFC WEE1 (P30291-1) ([6]; experiment wp081): −1.97 | logFC WEE1 (P30291-1) ([6]; experiment wp106, 2 hr): −2.525 | logFC WEE1 (P30291-1) ([6]; experiment wp106, 4 hr): −2.764 | logFC WEE1 (P30291-1) ([6]; experiment wp118): −2.75 | logFC FASTKD5 [8]: −0.4552 | logFC PFKFB3 ([3]; experiment wp118): −0.4051
